Legend:
HT29 = assay: NCI 60 antitumor screening (single dose / five doses); format: cell-based, human; details: Homo sapiens, HT-29; HT29 (colon cancer), single dose 10 μM; read-out: Growth inhibition percentage (GI %)
SK-MEL-5 = assay: as above; format: cell-based; details: Homo sapiens; SK-MEL-5 (melanoma), single dose 10 μM; read-out: Growth inhibition percentage (GI %)
RPMI-8226 = assay: as above; format: cell-based; details: Homo sapiens; RPMI-8226 (leukaemia), single dose 10 μM; read-out: Growth inhibition percentage (GI %)
MALME-3M = assay: as above; format: cell-based; details: Homo sapiens; MALME-3M (melanoma), single dose 10 μM; read-out: Growth inhibition percentage (GI %)
[1] = test system: 60 human subpanel cancer cell lines; assay: NCI 60 antitumor screening, mean over the panel (single dose); format: cell-based; details: mean over 60 cancer cell lines, single dose 10 μM
Protocol: Initially, the anticancer effects of target compounds have been assessed at a single (10 μM) dose. The obtained data have been reported as mean-graph of the percent growth (G%) of the treated cancer cells. Percentage growth inhibition (GI%) is calculated (100 − G%) and pronounced in Table 1. […] Target compounds in series (III) with manipulated linkers disclosed lower potency. Superiorly, eight s-triazine derivatives from the three series (6a, 6c, 6d, 7a, 7g, 7i, 7l, and 8b) have shown potent broad-spectrum anticancer activity against most the examined cell lines, whereas most of the remaining triazine derivatives, 20 derivatives, have exerted selective anti-proliferative actions towards certain cancer cell lines (Supplementary).
The antitumor screening was performed for 60 human cancer cell lines under the protocol of NCI (www.dtp.nci.nih.gov), the Drug Evaluation Branch, Bethesda, MD. All submitted compounds were nominated based on the degree of structural diversity and computer modelling techniques for evaluation of their anticancer activity. The screening process for antineoplastic activity passes through two successive levels, starting with the assessment of target compounds at a single dose of 10 μM against 60 cancer cell lines on nine types of human tumours. These experiments were done on a triplicate following. The output from the single‐dose screening was covered as a mean graph, and then, analysed by the COMPARE program. Finally, the compounds which disclosed subpanel cancer cell growth (G %) equal to or less than 10% in at least eight cancer cell lines get to pass the assessment against the 60 cell lines at five doses (0.01–100 μM). By using GraphPad Prism version 9.0 (Graphpad Software Inc., La Jolla, CA), GI50, TGI, as well as LC50 dose‐response parameters were computed and presented for each compound (Supplementary information)[55–57].

MDA-MB-231/ATCC = assay: NCI 60 antitumor screening (single dose / five doses); format: cell-based; details: Homo sapiens; MDA-MB-231/ATCC (breast cancer), single dose 10 μM; read-out: Growth inhibition percentage (GI %)
786-0 = assay: as above; format: cell-based; details: Homo sapiens, 786-0, 786-0 (renal cancer), single dose 10 μM; read-out: Growth inhibition percentage (GI %)
MOLT-4 = assay: as above; format: cell-based; details: Homo sapiens; MOLT-4 (leukaemia), single dose 10 μM; read-out: Growth inhibition percentage (GI %)
SF-539 = assay: as above; format: cell-based; details: Homo sapiens; SF-539 (CNS cancer), single dose 10 μM; read-out: Growth inhibition percentage (GI %)
NCI-H23 = assay: NCI 60 antitumor screening (single dose); format: cell-based; details: Homo sapiens; NCI-H23 (non-small cell lung cancer), single dose 10 μM; read-out: Growth inhibition percentage (GI %)
Summary of the method: (§1)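 Single-dose NCI protocol, 10 μM, triplicate. Readout G%; GI% = 100 − G%.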

NCI-H522 = assay: NCI 60 antitumor screening (single dose); format: cell-based; details: Homo sapiens; NCI-H522 (non-small cell lung cancer), single dose 10 μM; read-out: Growth inhibition percentage (GI %)
Summary of the method: as §1

A549/ATCC = assay: NCI 60 antitumor screening (single dose); format: cell-based; details: Homo sapiens; A549/ATCC (non-small cell lung cancer), single dose 10 μM; read-out: Growth inhibition percentage (GI %)
Summary of the method: (§2)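 NCI-60 one-dose screen. Dose: 10 μM. Lines: 60 human tumour lines, nine tissue types. Output: GI% = 100 − G%.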

NCI-H322M = assay: NCI 60 antitumor screening (single dose); format: cell-based; details: Homo sapiens; NCI-H322M (non-small cell lung cancer), single dose 10 μM; read-out: Growth inhibition percentage (GI %)
Summary of the method: as §2

MCF7 = assay: NCI 60 antitumor screening (single dose); format: cell-based; details: Homo sapiens; MCF7 (breast cancer), single dose 10 μM; read-out: Growth inhibition percentage (GI %)
Summary of the method: as §2

M14 = assay: NCI 60 antitumor screening (single dose); format: cell-based; details: Homo sapiens; M14 (melanoma), single dose 10 μM; read-out: Growth inhibition percentage (GI %)
Summary of the method: as §2

SF-268 = assay: NCI 60 antitumor screening (single dose); format: cell-based; details: Homo sapiens; SF-268 (CNS cancer), single dose 10 μM; read-out: Growth inhibition percentage (GI %)
Summary of the method: as §1

CAKI-1 = assay: NCI 60 antitumor screening (single dose); format: cell-based; details: Homo sapiens; CAKI-1 (renal cancer), single dose 10 μM; read-out: Growth inhibition percentage (GI %)
Summary of the method: as §2

HL-60(TB) = assay: NCI 60 antitumor screening (single dose / five doses); format: cell-based; details: Homo sapiens; HL-60(TB) (leukaemia), single dose 10 μM; read-out: Growth inhibition percentage (GI %)
SNB-75 = assay: as above; format: cell-based; details: Homo sapiens; SNB-75 (CNS cancer), single dose 10 μM; read-out: Growth inhibition percentage (GI %)
RXF 393 = assay: as above; format: cell-based; details: Homo sapiens; RXF 393 (renal cancer), single dose 10 μM; read-out: Growth inhibition percentage (GI %)
CCRF-CEM = assay: as above; format: cell-based; details: Homo sapiens; CCRF-CEM (leukaemia), single dose 10 μM; read-out: Growth inhibition percentage (GI %)
UACC-62 = assay: as above; format: cell-based; details: Homo sapiens; UACC-62 (melanoma), single dose 10 μM; read-out: Growth inhibition percentage (GI %)
UO-31 = assay: as above; format: cell-based; details: Homo sapiens; UO-31 (renal cancer), single dose 10 μM; read-out: Growth inhibition percentage (GI %)
BT-549 = assay: as above; format: cell-based; details: Homo sapiens; BT-549 (breast cancer), single dose 10 μM; read-out: Growth inhibition percentage (GI %)
SW-620 = assay: as above; format: cell-based, human; details: Homo sapiens; SW-620 (colon cancer), single dose 10 μM; read-out: Growth inhibition percentage (GI %)
MDA-MB-435 = assay: as above; format: cell-based; details: Homo sapiens; MDA-MB-435 (melanoma), single dose 10 μM; read-out: Growth inhibition percentage (GI %)
HCT-15 = assay: as above; format: cell-based; details: Homo sapiens; HCT-15 (colon cancer), single dose 10 μM; read-out: Growth inhibition percentage (GI %)
A498 = assay: as above; format: cell-based; details: Homo sapiens; A498 (renal cancer), single dose 10 μM; read-out: Growth inhibition percentage (GI %)

Structure (SMILES)	inhibition at 10 µM (HT29)	inhibition at 10 µM (SK-MEL-5)	inhibition at 10 µM (RPMI-8226)	inhibition at 10 µM (MALME-3M)	Mean GI % [1]	inhibition at 10 µM (MDA-MB-231/ATCC)	inhibition at 10 µM (786-0)	inhibition at 10 µM (MOLT-4)	inhibition at 10 µM (SF-539)	inhibition at 10 µM (NCI-H23)	inhibition at 10 µM (NCI-H522)	inhibition at 10 µM (A549/ATCC)	inhibition at 10 µM (NCI-H322M)	inhibition at 10 µM (MCF7)	inhibition at 10 µM (M14)	inhibition at 10 µM (SF-268)	inhibition at 10 µM (CAKI-1)	inhibition at 10 µM (HL-60(TB))	inhibition at 10 µM (SNB-75)	inhibition at 10 µM (RXF 393)	further results
CN(C)c1ccc(/C=N/Nc2nc(N/N=C/c3ccc(N(C)C)cc3)nc(N3CCOCC3)n2)cc1 [compound 6g, 4-[(1e)-(2-{4-[(E)-2-{[4-(dimethylamino)phenyl]methylidene}hydrazin-1-yl]-6-(morpholin-4-yl)-1,3,5-triazin-2-yl}hydrazin-1-ylidene)methyl]-N,N-dimethylaniline]	-1.91%	-0.23%	65%	-14.2%	14.28%	0.47%	15.4%	3.27%	3.33%	0.65%	1.08%	25.1%	-0.33%	45.1%	-2.62%	2.19%	4.03%	3.26%	12.6%	6.9%	inhibition at 10 µM (CCRF-CEM): 86.7%; inhibition at 10 µM (UACC-62): 2.25%; inhibition at 10 µM (UO-31): 9.35%; inhibition at 10 µM (BT-549): -5.53%; inhibition at 10 µM (SW-620): 16.2%; inhibition at 10 µM (MDA-MB-435): -4.43%; inhibition at 10 µM (HCT-15): 77.6%
C(=N\Nc1nc(N/N=C/c2ccc3c(c2)OCO3)nc(N2CCOCC2)n1)/c1ccc2c(c1)OCO2 [compound 6k, 2,4-Bis[(E)-2-(2H-1,3-Benzodioxol-5-ylmethylidene)hydrazin-1-yl]-6-(morpholin-4-yl)-1,3,5-triazine]	51.7%	14%	40.3%	-3.77%	20.69%	0.11%	36.6%	47.3%	18.2%	17%	12.5%	17.7%	11.8%	30.9%	5.09%	8.94%	21.1%	61.1%	13.4%	30.5%	inhibition at 10 µM (CCRF-CEM): 41%; inhibition at 10 µM (UACC-62): -4.28%; inhibition at 10 µM (UO-31): 46.4%; inhibition at 10 µM (BT-549): 5.57%; inhibition at 10 µM (SW-620): 29%; inhibition at 10 µM (MDA-MB-435): 4.07%; inhibition at 10 µM (HCT-15): 41.5%
Oc1ccccc1/C=N/Nc1nc(N/N=C/c2ccccc2O)nc(N2CCCCC2)n1 [compound 7a, 2-[(1e)-(2-{4-[(E)-2-[(2-Hydroxyphenyl)methylidene]hydrazin-1-yl]-6-(piperidin-1-yl)-1,3,5-triazin-2-yl}hydrazin-1-ylidene)methyl] phenol]	54.7%	25.6%	57.4%	33.1%	45.09%	34.5%	26.8%	59.1%	40.6%	44.2%	52.5%	52.2%	41.1%	64.3%	53.6%	45.7%	24.5%	52.6%	25.6%	17%	inhibition at 10 µM (A498): 17%; inhibition at 10 µM (CCRF-CEM): 78.3%; inhibition at 10 µM (UACC-62): 29.7%; inhibition at 10 µM (UO-31): 51.7%; inhibition at 10 µM (SW-620): 32.2%; inhibition at 10 µM (MDA-MB-435): 30.9%; inhibition at 10 µM (HCT-15): 22.6%
Brc1ccccc1/C=N/Nc1nc(N/N=C/c2ccccc2Br)nc(N2CCCCC2)n1 [compound 7b, 2,4-Bis[(E)-2-[(2-Bromophenyl)methylidene]hydrazin-1-yl]-6-(piperidin-1-yl)-1,3,5-triazine]	-1.89%	5.12%	-0.33%	-6.25%	−0.12%	2.05%	1.09%	-12.3%	2.62%	4.71%	6.02%	-2.25%	3.65%	13.2%	-4.12%	-1.64%	3.19%	-3.87%	-2.35%	2.13%	inhibition at 10 µM (CCRF-CEM): 0.06%; inhibition at 10 µM (UACC-62): 12.2%; inhibition at 10 µM (UO-31): 7.3%; inhibition at 10 µM (BT-549): -5.26%; inhibition at 10 µM (SW-620): -0.46%; inhibition at 10 µM (MDA-MB-435): -1.23%; inhibition at 10 µM (HCT-15): 1.2%

Reference: publication PMC9848300, “Discovery of novel enasidenib analogues targeting inhibition of mutant isocitrate dehydrogenase 2 as antileukaemic agents” (Journal of Enzyme Inhibition and Medicinal Chemistry, 2023)
